Data set [1] deals with DM6 cells expressing TMC. In words: processing and presentation: T cells co-cultured with DM6 expressing tandem mini-gene constructs (51Cr release, IFN-γ ELISA). The class given is cell-based, human. Particulars: for neoantigen processing and presentation (cytotoxic activity, IFN-γ production): DM6 expressing AAS-/MUT-encoding mini-gene construct. The source says: As illustrated in FIG. 9 and FIG. 10, to determine whether vaccine-induced T cells could recognize naturally processed antigen, the melanoma tumor cell line DM6 was transduced with a multi-mini-gene construct encoding mutated (MUT) or wild-type (WT) sequences of peptides incorporated into a vaccine. FIG. 9 illustrates that each minigene consists of 21 aa encoding either the MUT or WT sequences. A scheme depicting minigene construct characteristics and a representative MUT 21-mer aa sequence encoded in construct is shown. Vaccine-induced T cells, specific for AKAP13 containing the Q285K mutation, were incubated with MUT or WT expressing DM6 cells, supernatants collected after 24 h of incubation, and IFN-γ produced by T cells was measured in supernatants by ELISA (FIG. 10).
Tandem mini-gene constructs (TMC) were used for evaluating processing and presentation of neoantigens. All constructs were 19-21-mers encoding AAS- or WT-sequences for peptides included in vaccine. No spacers are present between sequences. A ubiquitination signal and two mini-gene controls (encoding G280 and WNV SVG9 peptides) were included to monitor processing and presentation. The amino acid sequence of a 21-mer encoding TMEM48 F169L is shown with mutated amino acid residue underlined. TMC also encoded the West Nile Virus (WNV) SVG9 (McMurtrey, C. P., et al., P.N.A.S., 105, 2981-2986, 2008) and melanoma G280 (Cox, A. L., et al., Science, 264, 716-719, 1994) antigenic determinants as controls (Table 6).
TMC were cloned into pMX (GFP+), expressed as retrovirus and used to transfect the HLA-A*02:01+ melanoma lines DM6 (Darrow, T. L., et al., J. Immunol., 142, 3329-3335, 1989) or A375 (obtained from ATCC and mycoplasma free). TMC expressing cells were selected by sorting for GFP+ cells expressing cell surface HLA-A*02:01/SVG9 peptide complexes as detected by a T cell receptor mimic (TCRm) monoclonal antibody (Kim S., et al., J. Immunol., 184, 4423-4430, 2010). AAS- and WT-TMC reactivity with the HLA-A*02:01/SVG9 peptide complex specific TCRm monoclonal antibody validated expression of the mini-gene constructs. […] Results are shown for parental DM6 (shaded histogram) and DM6 cells expressing AAS—(dashed line) and WT (solid line) TMC constructs. A representative experiment of four performed is shown.
DM6 cells expressing TMC were labeled with 25μCi ^51Cr for 1 h, washed and tested as targets in a standard 4 h assay using neoantigen-specific T cells as effectors (Carreno B. M. et al. 2012 J Immunol 188, 5839). DM6 cells expressing AAS—(closed rectangles) or WT—(closed circles) TMC were co-cultured with neoantigen-specific T cells at a 1:1 ratio, supernatants harvest at 16 h and IFN-γ production evaluated by ELISA as described (Carreno, B. M., et al., J Immunol., 188, 58395849, […]; plots in FIG. 38). Open triangles represent lysis obtained with parental DM6 cells. Percent specific lysis of triplicates (mean+standard deviation) is shown for each E:T ratio; spontaneous lysis was <5%. A representative experiment of two independent evaluations is shown.
FIG. 39 illustrates that neoantigen-specific CD8 T cells were co-cultured with DM6 expressing AAS- or WT-encoding TMC for 20 h and IFN-γ production determined by ELISA. T cells cultured with parental DM6 cells are indicated as media. Mean values+/−SD of duplicates are shown. Results are representative of 2 experiments performed. […] None of the neoantigen-specific T cells recognized WT-encoding TMC (FIGS. 38 and 39). Based on these findings and the immune monitoring results (FIG. 31), the nine neoantigens identified in this study fall into three distinct antigenic determinant categories (Sercarz, E. E., et al., Annu. Rev. Imunol., 11, 729-766, 1993; Assarsson, E., et al., J. Immunol., 178, 7890-7901, 2007).
(In general: In an ELISA, binding on a coated surface is turned into a signal by an enzyme label.)

Data set [2] deals with T1, HLA-A*02:01 (Homo sapiens, UniProt P04439, D140Y/D185E/D98H/E176V/E277Q/G131W/G231S/I119V/I121R/I166T/I218V/L300P/L318F/N151K/N90K/P208A/P217A/Q86G/Q94H/R138H/R169H/T345S).
T1 construct: purchased Pure Protein, L.L.C
In words: fluorescence polarization-based competitive peptide binding assay. In general terms: In fluorescence polarisation assays a small probe gives low polarisation when free and higher when bound to something large.

Setting [3] is: fluorescence polarization-based competitive peptide-binding assay, high affinity log(IC50; nM) <3.7, read-out: Experimental Affinity log(IC50) (converted).

A word on the IC50: it is the concentration needed to halve the response being measured.

Where two headings read alike, the source gives them in different places. No end group written: not given here.

CLNEYHLFL: in data set [1], the “Recognition of processed antigen” value was “Yes”; the “neoantigen processing and presentation (cytotoxic activity, IFN-γ production)” value (“neoantigen processing and presentation” for short) is “processed and presented”. Also, in data set [2] (setting [3]), the 50% inhibitory concentration (IC50) was 1230 nM.

In the case of IILVAVPHV, the “neoantigen processing and presentation” value in data set [1] was “processed and presented”.

As to KLMNIQQKL, the “Recognition of processed antigen” value in data set [1] is recorded as “Yes”. Also, the “neoantigen processing and presentation” value was “processed, presented and recognized by vaccine-induced T cells” in data set [1] (listed as AKAP13 (Q285K)); “processed and presented” in data set [1] (listed as AKAP13 Q285K). Moreover, in data set [2], the half-inhibitory concentration (IC50) is 1170 nM.

As to MLGEQLFPL, in data set [1], the “Recognition of processed antigen” value is on record as “Yes”; the “neoantigen processing and presentation” value is “processed and presented”. The IC50 in data set [2] (setting [3]) was 224 nM.

For QLSCISTYV, in data set [1], the “Recognition of processed antigen” value is given as “No”; the “neoantigen processing and presentation” value was “not processed and presented”. Besides, in data set [2] (setting [3]), the half-inhibitory concentration (IC50) is 1260 nM.

The values above are taken from US20170202939A1, “PERSONALIZED CANCER VACCINES AND METHODS THEREFOR” (Washington University, priority 2014, published 2017).
